Data: US8680059B2, “Oligopeptide acetate and formulations thereof” (Biotempt B.V., priority 1998, dated 2014)
Where “and” joins values, the source holds several entries; their conditions need not be identical. Equal entries are not always repeated.

Assays:
[1] = tested on: mice, high dose LPS septic shock; conditions: single treatment after high dose LPS injection; cited from earlier work
[2] = tested on: BALB/c mice injected i.p. with LPS (E. coli 026:B6); experiment: LPS-induced septic shock (endotoxin model) in BALB/c mice; type: in vivo, mouse
Experimental: Mice used in sepsis or septic shock experiments: Female BALB/c mice of 8-12 weeks of age were used for all experiments. The animals were bred in our facility under specific pathogen-free conditions according to the protocols described in the Report of European Laboratory Animal Science Associations (FELASA) Working group on Animal Health (Laboratory Animals 28: 1-24, 1994).
Injection protocols: For the endotoxin model, BALB/c mice were injected i.p. with 150-300 μg LPS (E. coli 026:B6; Difco Lab., Detroit, Mich., USA). Control groups were treated with PBS i.p. only. To test the effect of peptides, they were dissolved in PBS and injected i.p. at predetermined points in time after LPS treatment.
Mice were scored for sickness severity using the following measurement scheme: • 0 No abnormalities. • 1 Percolated fur, but no detectable behavior differences compared to normal mice. • 2 Percolated fur, huddle reflex, responds to stimuli (such as tap on cage), just as active during handling as healthy mouse. • 3 Slower response to tap on cage, passive or docile when handled, but still curious when alone in a new setting. • 4 Lack of curiosity, little or no response to stimuli, quite immobile. • 5 Labored breathing, inability or slow to self-right after being rolled onto back (moribund, sacrificed). • D Dead […]
A comparative trial was set up to compare peptide MTR and SEQ ID NO:2. The comparative trial comprised 6 groups of 6 animals; two groups (1A and 1B) receiving placebo (PBS), one group (2) peptide MTR (source Pepscan, Lelystad, NL), one group (3) receiving peptide MTR (source Ansynth), one group (4) receiving peptide SEQ ID NO:2 (source Pepscan) and one group peptide SEQ ID NO:2 (source Ansynth). Peptide/placebo in these groups was administered 2 hours after LPS. LPS (source) was used at 10-11 mg/kg. Sickness scores were done at 0, 2, 22 26 42 and 48 hours after LPS injection.

[3] = tested on: RAW 264.7 murine macrophage cell line; experiment: Nitrite (NO) production in LPS-stimulated RAW 264.7 macrophages; type: cell-based; conditions: co-stimulated with LPS 10 microg/ml, peptide even at 1 pg/ml, 24 hours
Experimental: Cell culture. The RAW 264.7 murine macrophage cell line, obtained from American Type Culture Collection (Manassas, Va., USA), were cultured at 37° C. in 5% CO2 using DMEM containing 10% fetal calf serum (FCS), 50 U/ml penicillin, 50 μg/ml streptomycin, […] Na-pyruvate, 2 mM glutamine and 50 μM 2-mercaptoethanol (Bio Whittaker, Europe). The medium was changed every 2 days.
Nitrite measurements. Nitrite production was measured in the RAW 264.7 macrophage supernatants. The cells (7.5×10^5/ml) were cultured in 48-well plates in […] of culture medium. The cells were stimulated with LPS (10 microg/ml) and/or peptide (1 pg/ml, 1 ng/ml, 1 μg/ml) for 24 hours, then the culture media were collected. Nitrite was measured by adding 100 microl of Griess reagent (Sigma) to 100 microl samples of culture medium. The OD540 was measured using a microplate reader, and the nitrite concentration was calculated by comparison with the OD540 produced using standard solutions of sodium nitrite in the culture medium.

[4] = tested on: mice, 25 minutes renal ischemia/reperfusion; experiment: Mouse renal ischemia reperfusion test (mortality, BUN/serum urea); type: in vivo; design: BUN, mean / Urea level: unit not given here; conditions: 5 mg/kg i.v.
Experimental: SEQ ID NO:2 was tested and compared with PBS (control) in a double blind animal study for the peptide's relative ability to aid recovery in a mouse renal ischemia reperfusion test. In this test, the mice were anesthetized, and one kidney from each mouse was removed. The other kidney was tied off for 25 minutes, and the serum urea levels were allowed to increase. Both before and after tying off, the peptide was administered to thirty (30) different mice (5 mg oligopeptide/kg body mass intravenously), after which, the mortality of the mice was determined for each oligopeptide as well as was the BUN concentration at two hours, 24 hours and 72 hours.
Under inhalation anesthesia, the left kidney with its artery and vein was isolated and occluded for 25 minutes using a microvascular clamp. During surgery animals were placed on a heating path to maintain body temperature at 37° C. Five minutes before placing the clamp, and 5 minutes before releasing the clamp, 5 mg/kg of peptide, dissolved in 0.1 mL of sterile saline, was administered intravenously. After reperfusion of the left kidney the right kidney was removed. Kidney function was assessed by measuring blood urea nitrogen before clamping, and at 2, 24, and 72 hours after reperfusion.
To determine dose-response relationships SEQ ID NO:2, was tested in a dose-response manner in the mice test as described above. Peptides were tested at 0.3, 1, 3, 10 and 30 mg/kg dosages given as described in Example I. Serum urea levels are presented in Table 3.

[5] = peptide twice (t = 2 hr and 24 hr) 5 mg/kg, LPS dose 11, t = 24 hr
[6] = peptide twice (t = 2 hr and 24 hr) 5 mg/kg, LPS dose 11, t = 48 hr
[7] = single dose 5 mg/kg, LPS dose 7*, t = 24 hr
[8] = single dose 5 mg/kg, LPS dose 8, t = 24 hr
[9] = single dose 5 mg/kg, LPS dose 8, t = 48 hr
[10] = single dose 5 mg/kg, LPS dose 10, t = 24 hr
[11] = single dose 5 mg/kg, LPS dose 10, t = 48 hr

Substance: VLPALP [6-mer oligopeptide derived from the beta-chain of human chorionic gonadotropin hormone (Khan et al. 2002)]
- septic shock in mice [1]: inhibited septic shock in mice

Substance: LQGV [tetrapeptide from loop 2 of the beta-subunit of hCG]
- effect against LPS-induced sepsis ([2]; 5 mg/kg i.p. after varying doses of LPS (Table 6)): marked protective effect
- number of mice with sickness score 5 ([2]; peptide twice (t = 2 hr and 24 hr) 5 mg/kg, LPS dose 10.5, t = 24 hr): 5
- number of mice with score D (dead) ([2]; peptide twice (t = 2 hr and 24 hr) 5 mg/kg, LPS dose 10.5, t = 48 hr): 5
- number of mice with sickness score 4 [2, 5]: 2
- number of mice with sickness score 5 [2, 5]: 4
- number of mice with score D (dead) [2, 6]: 4
- number of mice with sickness score 4 [2, 6]: 2
- number of mice with sickness score 1 ([2]; single dose 5 mg/kg, LPS dose 7**, t = 24 hr): 6
- number of mice with sickness score 1 ([2]; single dose 5 mg/kg, LPS dose 7**, t = 48 hr): 6
- number of mice with sickness score 1 [2, 7]: 2
- number of mice with sickness score 2 [2, 7]: 4
- number of mice with sickness score 1 ([2]; single dose 5 mg/kg, LPS dose 7*, t = 48 hr): 6
- number of mice with sickness score 1 [2, 8]: 3
- number of mice with sickness score 3 [2, 8]: 1
- number of mice with sickness score 2 ([2]; single dose 5 mg/kg, LPS dose 8, t = 24 hr, 5 mg/kg): 5 and 3
- number of mice with sickness score 0 [2, 9]: 4
- number of mice with sickness score 2 [2, 9]: 1
- number of mice with sickness score 1 [2, 10]: 2
- number of mice with sickness score 3 [2, 10]: 1
- number of mice with sickness score 4 [2, 10]: 1
- number of mice with score D (dead) [2, 11]: 1
- number of mice with sickness score 2 [2, 11]: 1
- number of mice with sickness score 1 ([2]; single dose 5 mg/kg, LPS dose 10, t = 48 hr, 5 mg/kg): 6 and 4
- % survival ([2]; single injection 5 mg/kg 2 hours after LPS (300 μg), time 0 hours): 100%
- % survival ([2]; single injection 5 mg/kg 2 hours after LPS, time 14 hours): 100%
- % survival ([2]; single injection 5 mg/kg 2 hours after LPS, time 24 hours): 100%
- % survival ([2]; single injection 5 mg/kg 2 hours after LPS, time 48 hours): 100%
- % survival ([2]; single injection 5 mg/kg 2 hours after LPS, time 84 hours): 100%
- % survival ([2]; single injection 5 mg/kg 24 hours after LPS (300 μg), time 0 hours): 100%
- % survival ([2]; single injection 5 mg/kg 24 hours after LPS, time 14 hours): 100%
- % survival ([2]; single injection 5 mg/kg 24 hours after LPS, time 24 hours): 100%
- % survival ([2]; single injection 5 mg/kg 24 hours after LPS, time 48 hours): 0%
- % survival ([2]; single injection 5 mg/kg 24 hours after LPS, time 84 hours): 0%
- NO production [3]: inhibited the production of NO
- BUN, mean ([4]; 2 hr after reperfusion): 17.53
- BUN, mean ([4]; 24 hr after reperfusion): 56.08
- BUN, mean ([4]; 72 hr after reperfusion): 73.18
- BUN, mean ([4]; t = 0 hr (before clamping)): 7.518
